The source of these data is the NIST ThermoML archive (doi:10.1016/j.jct.2016.06.031).

For data set [1] the following is noted: Liquid; for vapor or sublimation pressure: Closed cell (Static) method; for mass density: 101.33 kPa, Vibrating tube method.
Data set [2] is described as follows: refractive index (Na D-line) (dimensionless). Conditions: 101.33 kPa, Liquid, Standard Abbe refractometry.

Numbers after ± are expanded uncertainties.

Broadly, the vapor or sublimation pressure is the equilibrium pressure above the liquid or solid. What is called mass density is mass per unit of volume. As a reminder, the refractive index is the speed of light in vacuum divided by its phase velocity in the sample.

Take `FC(F)(F)C(F)(F)F` [hexafluoroethane]: the “vapor or sublimation pressure” value came out at 1839 ± 6 kPa in data set [1] (273.06 K); 2100 ± 6 kPa in data set [1] (278.07 K); 2388 ± 7 kPa in data set [1] (283.07 K); 2701 ± 7 kPa in data set [1] (288.07 K); 2972 ± 8 kPa in data set [1] (292.07 K).

Turning to `CCCCCCC` [heptane], the mass density in data set [1] (293.15 K) amounted to 683.8 ± 0.9 kg/m3; in data set [1] (295.15 K), 681.6 ± 0.9 kg/m3; in data set [1] (297.15 K) it was 679.9 ± 0.9 kg/m3; in data set [1] (298.15 K) it was 679.1 ± 0.9 kg/m3; in data set [1] (300.4 K) it was 677.1 ± 0.9 kg/m3. Also, the refractive index in data set [2] (293.15 K) is listed as 1.3878 ± 0.0007; in data set [2] (298.15 K) it was 1.3852 ± 0.0007.
